Results from the NIST ThermoML archive (doi:10.1021/je900387e).
Numbers after ± are expanded uncertainties.

Assay: xn = mol fraction of the nth substance listed
Conditions: Liquid, Pycnometric method

## Cn1ccnc1 [1-methylimidazole] + O=C=O
327.6 K, 13060 kPa, x1 = 0.0247
  mass density: 704 ± 4 kg/m3
327.6 K, 13110 kPa, x1 = 0.0102
  mass density: 649 ± 4 kg/m3
327.6 K, 13250 kPa, x1 = 0.0247
  mass density: 711 ± 4 kg/m3
327.6 K, 13400 kPa, x1 = 0.0102
  mass density: 663 ± 4 kg/m3
327.6 K, 13460 kPa, x1 = 0.0247
  mass density: 718 ± 4 kg/m3
327.6 K, 13670 kPa, x1 = 0.0247
  mass density: 724 ± 4 kg/m3
327.6 K, 13730 kPa, x1 = 0.0102
  mass density: 677 ± 4 kg/m3
327.6 K, 13900 kPa, x1 = 0.0247
  mass density: 731 ± 4 kg/m3
327.6 K, 14110 kPa, x1 = 0.0102
  mass density: 692 ± 4 kg/m3
327.6 K, 14140 kPa, x1 = 0.0247
  mass density: 738 ± 4 kg/m3
327.6 K, 14190 kPa, x1 = 0.0487
  mass density: 791 ± 4 kg/m3
327.6 K, 14340 kPa, x1 = 0.0487
  mass density: 795 ± 4 kg/m3
327.6 K, 14410 kPa, x1 = 0.0247
  mass density: 745 ± 4 kg/m3
327.6 K, 14560 kPa, x1 = 0.0102
  mass density: 707 ± 4 kg/m3
327.6 K, 14570 kPa, x1 = 0.0487
  mass density: 799 ± 4 kg/m3
327.6 K, 14710 kPa, x1 = 0.0247
  mass density: 753 ± 4 kg/m3
327.6 K, 14830 kPa, x1 = 0.0487
  mass density: 804 ± 4 kg/m3
327.6 K, 15010 kPa, x1 = 0.0247
  mass density: 760 ± 4 kg/m3
327.6 K, 15080 kPa, x1 = 0.0487
  mass density: 809 ± 4 kg/m3
327.6 K, 15100 kPa, x1 = 0.0102
  mass density: 723 ± 4 kg/m3
327.6 K, 15270 kPa, x1 = 0.0247
  mass density: 766 ± 4 kg/m3
327.6 K, 15370 kPa, x1 = 0.0487
  mass density: 814 ± 4 kg/m3
327.6 K, 15550 kPa, x1 = 0.0247
  mass density: 772 ± 4 kg/m3
327.6 K, 15660 kPa, x1 = 0.0487
  mass density: 819 ± 4 kg/m3
327.6 K, 15730 kPa, x1 = 0.0102
  mass density: 740 ± 4 kg/m3
327.6 K, 15940 kPa, x1 = 0.0487
  mass density: 825 ± 4 kg/m3
327.6 K, 15970 kPa, x1 = 0.0247
  mass density: 779 ± 4 kg/m3
327.6 K, 16080 kPa, x1 = 0.1024
  mass density: 899 ± 4 kg/m3
327.6 K, 16170 kPa, x1 = 0.1024
  mass density: 900 ± 4 kg/m3
327.6 K, 16280 kPa, x1 = 0.0487
  mass density: 829 ± 4 kg/m3
327.6 K, 16300 kPa, x1 = 0.1024
  mass density: 901 ± 4 kg/m3
327.6 K, 16400 kPa, x1 = 0.0247
  mass density: 787 ± 4 kg/m3
327.6 K, 16420 kPa, x1 = 0.1024
  mass density: 903 ± 4 kg/m3
327.6 K, 16460 kPa, x1 = 0.0102
  mass density: 758 ± 4 kg/m3
327.6 K, 16540 kPa, x1 = 0.1024
  mass density: 904 ± 4 kg/m3
327.6 K, 16640 kPa, x1 = 0.0247
  mass density: 791 ± 4 kg/m3
327.6 K, 16650 kPa, x1 = 0.0487
  mass density: 836 ± 4 kg/m3
327.6 K, 16650 kPa, x1 = 0.1024
  mass density: 905 ± 4 kg/m3
327.6 K, 16780 kPa, x1 = 0.1024
  mass density: 906 ± 4 kg/m3
327.6 K, 16930 kPa, x1 = 0.1024
  mass density: 908 ± 4 kg/m3
327.6 K, 16980 kPa, x1 = 0.0247
  mass density: 798 ± 4 kg/m3
327.6 K, 17060 kPa, x1 = 0.1024
  mass density: 909 ± 4 kg/m3
327.6 K, 17130 kPa, x1 = 0.0102
  mass density: 771 ± 4 kg/m3
327.6 K, 17210 kPa, x1 = 0.0247
  mass density: 802 ± 4 kg/m3
327.6 K, 17210 kPa, x1 = 0.1024
  mass density: 911 ± 4 kg/m3
327.6 K, 17330 kPa, x1 = 0.0487
  mass density: 846 ± 4 kg/m3
327.6 K, 17390 kPa, x1 = 0.1024
  mass density: 912 ± 4 kg/m3
327.6 K, 17490 kPa, x1 = 0.1024
  mass density: 913 ± 4 kg/m3
327.6 K, 17600 kPa, x1 = 0.0247
  mass density: 808 ± 4 kg/m3
327.6 K, 17620 kPa, x1 = 0.1024
  mass density: 914 ± 4 kg/m3
327.6 K, 17740 kPa, x1 = 0.0487
  mass density: 851 ± 4 kg/m3
327.6 K, 17750 kPa, x1 = 0.1024
  mass density: 916 ± 4 kg/m3
327.6 K, 17850 kPa, x1 = 0.0102
  mass density: 786 ± 4 kg/m3
327.6 K, 17870 kPa, x1 = 0.0247
  mass density: 813 ± 4 kg/m3
327.6 K, 17960 kPa, x1 = 0.1024
  mass density: 918 ± 4 kg/m3
327.6 K, 18080 kPa, x1 = 0.1024
  mass density: 919 ± 4 kg/m3
327.6 K, 18200 kPa, x1 = 0.0487
  mass density: 857 ± 4 kg/m3
327.6 K, 18230 kPa, x1 = 0.1024
  mass density: 920 ± 4 kg/m3
327.6 K, 18380 kPa, x1 = 0.0102
  mass density: 795 ± 4 kg/m3
327.6 K, 18380 kPa, x1 = 0.1024
  mass density: 922 ± 4 kg/m3
327.6 K, 18580 kPa, x1 = 0.1024
  mass density: 923 ± 4 kg/m3
327.6 K, 18690 kPa, x1 = 0.0487
  mass density: 863 ± 4 kg/m3
327.6 K, 18770 kPa, x1 = 0.1024
  mass density: 924 ± 4 kg/m3
327.6 K, 18840 kPa, x1 = 0.0102
  mass density: 802 ± 4 kg/m3
327.6 K, 18940 kPa, x1 = 0.1024
  mass density: 925 ± 4 kg/m3
332.4 K, 12410 kPa, x1 = 0.0102
  mass density: 539 ± 4 kg/m3
332.4 K, 12550 kPa, x1 = 0.0102
  mass density: 548 ± 4 kg/m3
332.4 K, 12670 kPa, x1 = 0.0102
  mass density: 558 ± 4 kg/m3
332.4 K, 12820 kPa, x1 = 0.0102
  mass density: 568 ± 4 kg/m3
332.4 K, 12980 kPa, x1 = 0.0102
  mass density: 578 ± 4 kg/m3
332.4 K, 13160 kPa, x1 = 0.0102
  mass density: 589 ± 4 kg/m3
